Data reported in PMC9128806 (Journal of medicinal chemistry, 2021).

What was measured:
[1] = tested on: human leukemia EU-1 cell line; assay: WST antiproliferative/cytotoxicity assay, EU-1; assay type: cell-based; conditions: for fold increased potency compared to 2: para-ester replaced by acetyl or isobutyryl; for fold drop in potency, para to meta position: 16 vs 13, 17 vs 14
MDM2 [2] = biological target: T1, MDM2 (Homo sapiens, UniProt Q00987); assay: MDM2 binding; conditions: subsequent mechanistic studies, no data shown
[3] = tested on: ALL cell lines (EU-1 and EU-3); assay: WST cytotoxicity assay, ALL cell lines; assay type: cell-based; conditions: Homo sapiens, 48 h
[4] = tested on: NB cell lines (NB-1643, SHEP1, and LA1–55N); assay: WST cytotoxicity assay, NB cell lines; assay type: cell-based; conditions: Homo sapiens, 48 h
MDM2 [5] = biological target: T1, MDM2; assay: Western blot, MDM2 expression in EU-1 cells; assay type: cell-based
XIAP = assay: Western blot, XIAP expression in EU-1 cells; assay type: cell-based, human; conditions: dose-dependent
p53, p21 and PUMA = assay: Western blot, p53 and its targets p21 and PUMA; assay type: cell-based, human; conditions: EU-1 cells; accompanying MDM2 downregulation
[6] = tested on: human normal bone marrow mononuclear (NBMM) cells; assay: Clonogenic assays for CFU-GM and BFU-E; assay type: cell-based; conditions: 1 μM, colonies counted after 14 days, vs control
[7] = mice; cited from earlier work

T1 sequence (Q00987 whole entry): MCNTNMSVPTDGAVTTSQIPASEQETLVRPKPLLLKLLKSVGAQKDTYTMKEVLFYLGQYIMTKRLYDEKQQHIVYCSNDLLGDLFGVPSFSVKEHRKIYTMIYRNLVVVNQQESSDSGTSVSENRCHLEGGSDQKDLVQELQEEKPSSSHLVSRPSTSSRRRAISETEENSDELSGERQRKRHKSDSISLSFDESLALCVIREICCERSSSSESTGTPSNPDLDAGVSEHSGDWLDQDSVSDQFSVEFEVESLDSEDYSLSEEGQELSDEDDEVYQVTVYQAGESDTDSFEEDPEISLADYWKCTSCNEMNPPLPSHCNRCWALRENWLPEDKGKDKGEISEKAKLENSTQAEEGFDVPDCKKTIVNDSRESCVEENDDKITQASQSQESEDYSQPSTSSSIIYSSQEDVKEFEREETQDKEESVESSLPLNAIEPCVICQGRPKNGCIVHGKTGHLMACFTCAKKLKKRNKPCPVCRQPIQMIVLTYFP

## CC(=O)c1ccc(C2Nc3ccc(S(=O)(=O)Nc4ccc(C)c(C)c4)cc3C3OCCC23)cc1 (stereo not drawn) [Compound 13, 4-(4-Acetylphenyl)-N-(3,4-dimethylphenyl)-2,3,3a,4,5,9b-hexahydrofuro[3,2-c]quinoline-8-sulfonamide]
[1]
  fold increased potency compared to 2: approximately 4 fold
MDM2 [2]
  binding to the MDM2 target: does not bind to the MDM2 target

## Cc1ccc(NS(=O)(=O)c2ccc3c(c2)C2OCCC2C(c2ccc(C(=O)C(C)C)cc2)N3)cc1C (stereo not drawn) [Compound 14, N-(3,4-Dimethylphenyl)-4-(4-isobutyrylphenyl)-2,3,3a,4,5,9b-hexahydrofuro[3,2-c]quinoline-8-sulfonamide]
[1]
  fold increased potency compared to 2: approximately 4 fold
[3]
  IC50: 300 to 400 nM
[4]
  IC50: 500 to 1200 nM
MDM2 [5]; MDM2 and XIAP
  time after treatment at which downregulation of MDM2 and XIAP occurred: 2 to 4 h
MDM2 [5]; dose-dependent
  MDM2 expression: remarkable downregulation
XIAP
  XIAP expression: remarkable downregulation
p53, p21 and PUMA
  p53 expression: increased expression of p53

## Cc1ccc(NS(=O)(=O)c2ccc3c(c2)[C@H]2OCC[C@H]2[C@@H](c2ccc(C(=O)C(C)C)cc2)N3)cc1C [Compound 14d, (3aS,4S,9bS)-N-(3,4-Dimethylphenyl)-4-(4-isobutyrylphenyl)-2,3,3a,4,5,9b-hexahydrofuro[3,2-c]quinoline-8-sulfonamide]
[1]; 14d vs 14a–c
  fold higher potency compared to the other three isomers: 5- to 8 fold

## Cc1ccc(NS(=O)(=O)c2ccc3c(c2)C2OCCC2C(c2ccc(C(O)C(C)C)cc2)N3)cc1C (stereo not drawn) [Compound 15, N-(3,4-Dimethylphenyl)-4-(4-(1-hydroxy-2-methylpropyl)phenyl)-2,3,3a,4,5,9b-hexahydrofuro[3,2-c]-quinoline-8-sulfonamide]
[1]; EU-1 IC50 ratio
  fold decreased potency compared to 14: approximately 4 fold

## CC(=O)c1cccc(C2Nc3ccc(S(=O)(=O)Nc4ccc(C)c(C)c4)cc3C3OCCC23)c1 (stereo not drawn) [Compound 16, 4-(3-Acetylphenyl)-N-(3,4-dimethylphenyl)-2,3,3a,4,5,9b-hexahydrofuro[3,2-c]quinoline-8-sulfonamide]
[1]
  fold drop in potency, para to meta position: 4 fold

## Cc1ccc(NS(=O)(=O)c2ccc3c(c2)C2OCCC2C(c2cccc(C(=O)C(C)C)c2)N3)cc1C (stereo not drawn) [Compound 17, N-(3,4-Dimethylphenyl)-4-(3-isobutyrylphenyl)-2,3,3a,4,5,9b-hexahydrofuro[3,2-c]quinoline-8-sulfonamide]
[1]
  fold drop in potency, para to meta position: 7 fold

## Cc1ccc(NS(=O)(=O)c2ccc3c(c2)C2OCCC2C(c2ccc(C(=O)C4CC4)cc2)N3)cc1C (stereo not drawn) [Compound 22, 4-(4-(Cyclopropanecarbonyl)phenyl)-N-(3,4-dimethylphenyl)-2,3,3a,4,5,9b-hexahydrofuro[3,2-c]quinoline-8-sulfonamide]
[1]; EU-1 IC50 ratio
  fold decreased potency compared to 14: 10 fold

## Cc1ccc(NS(=O)(=O)c2ccc3c(c2)C2OCCC2C(c2ccc(C(=O)C4CCCCC4)cc2)N3)cc1C (stereo not drawn) [Compound 25, 4-(4-(Cyclohexanecarbonyl)phenyl)-N-(3,4-dimethylphenyl)-2,3,3a,4,5,9b-hexahydrofuro[3,2-c]quinoline-8-sulfonamide]
[1]; EU-1 IC50 ratio
  fold decreased potency compared to 14: approximately 6 fold

## Cc1ccc(NS(=O)(=O)c2ccc3c(c2)C2OCCC2C(c2ccc(C(=O)c4ccccc4)cc2)N3)cc1C (stereo not drawn) [Compound 26, 4-(4-Benzoylphenyl)-N-(3,4-dimethylphenyl)-2,3,3a,4,5,9b-hexahydrofuro[3,2-c]quinoline-8-sulfonamide]
[1]; EU-1 IC50 ratio
  fold decreased potency compared to 14: approximately 6 fold

## Cc1ccc(NS(=O)(=O)c2ccc3c(c2)C2C=CCC2C(c2ccc(C(=O)C(C)C)cc2)N3)cc1C (stereo not drawn) [Compound 27, N-(3,4-Dimethylphenyl)-4-(4-isobutyrylphenyl)-3a,4,5,9b-tetrahydro-3H-cyclopenta[c]quinoline-8-sulfonamide]
[1]; EU-1 IC50 ratio
  fold decreased potency compared to 14: 5 fold

## Cc1ccc(NS(=O)(=O)c2ccc3c(c2)C2CCCC2C(c2ccc(C(=O)C(C)C)cc2)N3)cc1C (stereo not drawn) [Compound 28, N-(3,4-Dimethylphenyl)-4-(4-isobutyrylphenyl)-2,3,3a,4,5,9b-hexahydro-1H-cyclopenta[c]quinoline-8-sulfonamide]
[1]; saturation of cyclopentene double bond
  fold drop in potency compared to 27: approximately 3 fold

## Cc1ccc(NS(=O)(=O)c2ccc3c(c2)C2NCCC2C(c2ccc(C(=O)C(C)C)cc2)N3)cc1C (stereo not drawn) [Compound 30, N-(3,4-Dimethylphenyl)-4-(4-isobutyrylphenyl)-2,3,3a,4,5,9b-hexahydro-1H-pyrrolo[3,2-c]quinoline-8-sulfonamide]
[1]; EU-1 IC50 ratio
  fold decreased potency compared to 14: 6 fold

## Cc1ccc(NS(=O)(=O)c2ccc3c(c2Cl)C2C=CCC2C(c2ccc(S(C)(=O)=O)cc2)N3)cc1C (stereo not drawn) [Compound 44, 9-Chloro-N-(3,4-dimethylphenyl)-4-(4-(methylsulfonyl)phenyl)-3a,4,5,9b-tetrahydro-3H-cyclopenta[c]quinolone-8-sulfonamide]
[1]; EU-1 IC50 ratio
  fold less potent than parent compound 42: approximately 6 fold

## Cc1ccc(N(C)S(=O)(=O)c2ccc3c(c2)C2OCCC2C(c2ccc(C(=O)C(C)C)cc2)N3C)cc1C (stereo not drawn) [Compound 45, N-(3,4-Dimethylphenyl)-4-(4-isobutyrylphenyl)-N,5-dimethyl-2,3,3a,4,5,9b-hexahydrofuro[3,2-c]quinoline-8-sulfonamide]
[1]; EU-1 IC50 ratio
  fold decreased potency compared to 14: 2 fold

## Cc1ccc(N(C)S(=O)(=O)c2ccc3c(c2)C2OCCC2C(c2ccc(C(=O)C(C)C)cc2)N3)cc1C (stereo not drawn) [Compound 46, N-(3,4-Dimethylphenyl)-4-(4-isobutyrylphenyl)-N-methyl-2,3,3a,4,5,9b-hexahydrofuro[3,2-c]quinoline-8-sulfonamide]
[1]; EU-1 IC50 ratio
  fold decreased potency compared to 14: 3 fold

## COc1cccc2c1C(=O)c1c(O)c3c(c(O)c1C2=O)C[C@@](O)(C(=O)CO)C[C@@H]3O[C@H]1C[C@H](N)[C@H](O)[C@H](C)O1 [Dox, doxorubicin]
[6]
  CFU-GM and BFU-E colony numbers and size: significantly reduced

## Cc1ccc(NS(=O)(=O)c2ccc3c(c2)C2C=CCC2C(c2ccc(C(=O)O)cc2)N3)cc1C (stereo not drawn) [MX69]
[7]
  tolerability: well tolerated
